Values quoted from earlier work, collected in publication PMC11573584, “Thanatin and vinyl sulfide analogues as narrow spectrum antimicrobial peptides that synergise with polymyxin B” (Frontiers in Pharmacology, 2024).
Where two headings read alike, the source gives them in different places. Marks after values point to notes of the source that are not given here.

How the values were obtained:
[1] = test system: S. aureus ATCC 25923; details: non-cation adjusted media, ref Sinha et al. (2022), cited from earlier work
Excerpt: (§1) TABLE 1 Minimum Inhibitory Concentrations (MICs) of thanatin* (5) and similar analogues against a variety of pathogens. | column: Minimum inhibitory concentration (µM) / Thanatin ^a ^, ^b (1); Minimum inhibitory concentration (µM) / Thanatin M21F ^b (4) || TABLE 2 Minimum Inhibitory Concentrations (MICs) of thanatin* (5) and analogues (8–11) towards a variety of pathogens. | column: Minimum inhibitory concentration (µM) / 1 (Thanatin) ^a

[2] = test system: E. coli ATCC 25922; details: non-cation adjusted media, ref Wu et al. (2013); cited from earlier work
Excerpt: as §1, with “S-Thanatin ^a (3)” for “Thanatin M21F ^b (4)”

[3] = test system: E. coli BL21; details: non-cation adjusted media, ref Sinha et al. (2022); cited from earlier work
Excerpt: (§2) TABLE 1 Minimum Inhibitory Concentrations (MICs) of thanatin* (5) and similar analogues against a variety of pathogens. | column: Minimum inhibitory concentration (µM) / Thanatin ^a ^, ^b (1); Minimum inhibitory concentration (µM) / Thanatin M21F ^b (4)

[4] = test system: P. aeruginosa ATCC 27853; details: non-cation adjusted media, ref Sinha et al. (2022); cited from earlier work
Excerpt: as §2

[5] = test system: P. aeruginosa PAO1; details: ref Sinha et al. (2022); cited from earlier work
Excerpt: TABLE 2 Minimum Inhibitory Concentrations (MICs) of thanatin* (5) and analogues (8–11) towards a variety of pathogens. | column: Minimum inhibitory concentration (µM) / 1 (Thanatin) ^a

Thanatin [Thanatin (1)]
Minimum inhibitory concentration (MIC) ([1]; listed as 1 (Thanatin)): 8 µM
Minimum inhibitory concentration (MIC) [1]: 8 ^b µM
Minimum inhibitory concentration (MIC) [2]: 3.2 ^a µM
Minimum inhibitory concentration (MIC) [3]: 0.5 ^b µM
Minimum inhibitory concentration (MIC) [4]: 1 ^b µM
Minimum inhibitory concentration (MIC) [5]: 2 µM
